The text below walks through data of patent US4613586A, “Gastrin releasing peptide-like peptides” (Board of Trustees of the Leland Stanford Junior University, priority 1984, dated 1986).

Assay type in all cases: binding, rabbit
The test system of test [1] is GRP(1-16) antisera Code R2-6A. The experiment in a line: GRP aminoterminal radioimmunoassay (crossreactivity, displacement of 125I-GRP(1-27) trace). The conditions noted are these: summary of Table 1. From the text:
(§1) Three GRP antisera were generated in rabbits against synthetic porcine GRP and GRP(1-16) (Peninsula Laboratories, San Carlos, CA) linked by a water soluble carbodiimide to bovine throglobulin (as described by Weber, E., Evans, C. J., Chang, J-K. and Barchas, J. D., J. Neurochem 38, 436-447 (1982). RIA conditions have been described in Weber, E., Evans, C. J., and Barchas, J. D., Nature 299, 77-79 (1982). Three GRP RIA's were utilized, the specificity of these RIA's is indicated in Table 1.
(§2) An antisera dilution of 1:20,000 for the GRP(1-27) R3-2 antisera and a dilution of 1:15,000 for the GRP(1-16) R2-6A were used for RIA. For these RIA's GRP(1-27) was used as ^125 I-trace and standard. An antisera dilution of 1:20,000 for GRP(1-16) R2-6B and GRP(1-16) trace and standard were used in the GRP(1-16) carboxyterminal assay. Crossreactivity was based on the amount of unlabeled peptide needed to obtain a 50 percent displacement of ^125 I-trace from the antisera. The highest concentration of unlabeled peptide tested was 1 μM.

Test [2] deals with GRP(1-16) antisera Code R2-6B. The test is described as follows: GRP(1-16) carboxyterminal radioimmunoassay (crossreactivity, displacement of 125I-GRP(1-16) trace). As to conditions: summary of Table 1.
Excerpt: as §1, §2

Test [3] deals with GRP(1-27) antisera Code R3-2. The test is described as follows: GRP carboxyterminal radioimmunoassay (crossreactivity, displacement of 125I-GRP(1-27) trace). As to conditions: for Percent Crossreactivity in RIA GRP(1-27) Code R3-2: antisera dilution 1:20,000, GRP(1-27) trace and standard, based on amount of unlabeled peptide for 50 percent displacement, highest concentration tested 1 μM; for Crossreactivity with GRP carboxyterminal antiserum (in words): summary of Table 1.
Excerpt: as §1, §2
Background: Loss of bound radioactivity is the signal in a displacement assay; it reports binding, not function.

No end group written: not given here.

On to APVSVGGGTVLAKMYPRGNHWAVGHLM-NH2 [GRP], for which the “Crossreactivity in GRP aminoterminal RIA (in words)” value in test [1] is reported as “crossreacted”. In addition, the “Crossreactivity with GRP(1-16) carboxyterminal antisera (in words)” value in test [2] was “little crossreactivity”. Besides, in test [3], the “Percent Crossreactivity in RIA GRP(1-27) Code R3-2” value (shortened to “Percent Crossreactivity”) was found to be 100% and the “Crossreactivity with GRP carboxyterminal antiserum (in words)” value is listed as “crossreacted”.

On to `CSCC[C@H](NC(=O)[C@H](CC(C)C)NC(=O)[C@H](Cc1c[nH]cn1)NC(=O)CNC(=O)[C@@H](NC(=O)[C@H](C)NC(=O)[C@H](Cc1c[nH]c2ccccc12)NC(=O)[C@H](Cc1c[nH]cn1)NC(=O)[C@H](CC(N)=O)NC(=O)CN)C(C)C)C(N)=O` [GRP(18-27), Gly-Asn-His-Trp-Ala-Val-Gly-His-Leu-Met-NH2], for which the “Crossreactivity in GRP aminoterminal RIA (in words)” value in test [1] is recorded as “not”. Moreover, in test [3], the “Percent Crossreactivity” value turned out to be 60% and the “Crossreactivity with GRP carboxyterminal antiserum (in words)” value is recorded as “crossreacted”.

In the case of `CSCC[C@H](NC(=O)[C@H](CC(C)C)NC(=O)[C@H](Cc1cnc[nH]1)NC(=O)CNC(=O)[C@@H](NC(=O)[C@H](C)NC(=O)[C@H](Cc1c[nH]c2ccccc12)NC(=O)[C@H](CCC(N)=O)NC(=O)[C@H](CC(N)=O)NC(=O)CNC(=O)[C@H](CC(C)C)NC(=O)[C@H](CCCN=C(N)N)NC(=O)[C@H](CCC(N)=O)NC(=O)[C@@H]1CCC(=O)N1)C(C)C)C(N)=O` [Bombesin], in test [3], the “Percent Crossreactivity” value is reported as 30% and the “Crossreactivity with GRP carboxyterminal antiserum (in words)” value is “crossreacted”.
